Results on eleven compounds are retold here after patent US20170049739A1, “PROSTACYCLIN COMPOUNDS, COMPOSITIONS AND METHODS OF USE THEREOF” (INSMED INCORPORATED, priority 2013, published 2017).

“Also recorded” adds a separate entry of the source.

For data set [1], the system named is esterase. Kind of data set: Esterase mediated conversion of treprostinil compounds to treprostinil. The format is in vitro ADME. The settings on record: 37° C., up to 1 hr. Here is the method: A set of studies was conducted to determine the conversion kinetics to treprostinil of linear treprostinil compounds versus various branched treprostinil compounds. 0.4 mM of linear C8-TR or branched treprostinil compounds 2-dimethyl-1-propanyl-TR, 3,3-dimethyl-1-butanyl-TR, 2-ethyl-1-butanyl-TR, 5-nonanyl-TR, or 3-pentanyl-TR (see below for structures) were incubated with 0.2 U esterase at 37° C. for 1 hour, and the conversion (% of total) was calculated at 0.25, 0.5, 0.75, or 1 hour incubation time. • C8-TR (i.e., the compound of Formula (A) wherein R2=
The conversion is relative to the C8-TR compound and conversion was measured at 1 hr. post esterase incubation, • C8-TR (i.e., the compound of Formula (A) wherein R2=
Conversion was measured at 1 hr. post esterase incubation. • 4C7-TR (i.e., the compound of Formula (A) wherein R2=

Data set [2] deals with T1, EP2 prostanoid receptor (Homo sapiens, UniProt P43116).
T1 construct: host or cells: CHO-K1 cells, transiently co-transfected with pGloSensor-22F cAMP plasmid and pGEM-3Zf(+)
T1 sequence (P43116 whole entry): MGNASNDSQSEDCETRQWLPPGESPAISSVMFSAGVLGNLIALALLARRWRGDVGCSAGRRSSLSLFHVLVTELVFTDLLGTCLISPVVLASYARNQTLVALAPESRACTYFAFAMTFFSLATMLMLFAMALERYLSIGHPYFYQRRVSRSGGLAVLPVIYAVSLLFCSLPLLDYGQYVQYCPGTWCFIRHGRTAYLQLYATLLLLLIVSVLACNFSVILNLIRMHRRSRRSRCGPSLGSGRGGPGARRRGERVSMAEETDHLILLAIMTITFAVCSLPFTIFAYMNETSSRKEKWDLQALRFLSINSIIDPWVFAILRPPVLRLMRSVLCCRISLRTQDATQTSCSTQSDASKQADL
Kind of data set: GloSensor cAMP assay in CHO-K1 cells co-transfected with the EP2 receptor. It is filed as cell-based. An excerpt: cAMP is a second messenger involved in signal transduction of G-protein coupled receptors (GPCRs) acting through Ga-s and Ga-i proteins. Because the treprostinil receptor is a GPCR, the assay provides an indication of whether the respective prostacyclin compound (or metabolite thereof) binds its receptor and activates the GPCR cell signaling cascade. The GloSensorTM assay harnesses a genetically modified form of firefly luciferase into which a cAMP-binding protein moiety has been inserted. Upon binding of cAMP, a conformational change is induced leading to increased light output. The EP2 prostanoid receptor was co-transfected with the GloSensorTM plasmid (Promega) into CHG-K1 cells as follows. CHO-K1 cells were harvested when the monoloayer was at 50-90% confluence. First, cells were washed with 5 mL PBS. […] The media was aspirated, and the cell pellet was resuspended in 10 mL of growth media. Cell number was determined using a hemacytometer. Each well of a culture treated 96 […] bottom plate (Costar, Cat #: 3917) was seeded with 1×10^4 cells per 100 μL antibiotic-free growth media. […] For small scale transfections of up to 20 wells, the pGLoSensor-22F cAMP plasmid (Promega, Cat #: E2301) (2 μg): (EP2) (10 ng) (Origene, Cat #: SC126558) : pGEM-3Zf(+) (10 ng) (Promega, Cat #: P2271) ratio was diluted to a final concentration of 12.6 ng/μL (total plasmid) in Opti-MEM I reduced-serum medium (Life Technologies, Cat #: 1985062). Next, 6 μL of FuGENE HD transfection reagent (Promega, Cat #: E2311) was added to 160 μL of diluted plasmid and mixed carefully by gentle pipetting. The complex was incubated at room temperature for 0 to 10 minutes, and then 8 μL of the complex was added per well of a 96 well white assay plate (Costar, Cat #: 3917) and gently mixed without disturbing the cell monolayer. […] Following incubation, cells were treated and analyzed. For larger scale transfections, the aforementioned steps were scaled up accordingly, and cells were frozen following the last incubation. In order to prepare frozen transfected CHO-K1 cells, the media was aspirated from culture flasks and cells were rinsed with 5 mL PBS. […] Cell number was determined using a hemacytometer. The media was aspirated, and the cell pellet was resuspended in freezing media (Millipore, cat #: S-002-5F) at 2.5×10^6 cells/vial. Transfected cells were incubated overnight at -80° C. before transfer to liquid nitrogen for long term storage. […] In preparation for cAMP measurement, the cells were equilibrated with the GloSensor cAMP reagent prior to treatment. For equilibration, the medium was carefully removed from the individual well. Next, 100 μL of equilibration medium (6% v/v of Glosensor Reagent stock solution (Promega, Cat #: E291), 10% FBS (Hyclone, Cat #: SH30071.03) and 88% CO2 independent medium (Life Technologies, Cat #: 18045088)) was added per well of the 96-well plate, and added to the side of each well. The plate was then incubated for 2 hours at room temperature. A first pre-read measurement was taken using a microplate reader (MicroLumat Plus). Plates were incubated for an additional 10 minutes at room temperature, followed by a second pre-read measurement. […] Following treatment, each plate was read every 5 minutes for the duration of the assay using a microplate reader (MicroLumat Plus). In order to determine the fold change in cAMP relative to the control, the transfection efficiency was first determined by dividing the second pre-read measurement by the average of the corresponding pre-read measurements. Next, the normalized relative light units (RLUs) of the samples were determined by dividing the plate read measurement by the transfection efficiency. The fold change in cAMP relative to the control was then determined by dividing the normalized RLU of the samples by the normalized RLU of the control. […] Results from the three highest concentrations are provided at FIG. 3A (10 μM), FIG. 3B (1 μM) and FIG. 3C (0.1 μM). […]
On the technique in general: Changes in cAMP serve as a functional read-out for many G protein-coupled receptors.

The test system of data set [3] is NR8383 cells. Kind of data set: NR8383 cell proliferation assay. The settings on record: unformulated alkyl esters, 72 hour incubation; for Effect on cell proliferation: 0.195 μM-25 μM. It is filed as cell-based, rat. As to the method: Rat alveolar NR8383 cells were harvested when the monolayer was 50-90% confluent (use passage 5-11). Because the NR8383 cells include both adherent and non-adherent cells, media was transferred to a 50 mL Falcon tube. To obtain the cells remaining in the flask, 2 mL of plain media was added, and the remaining cells were scraped out of the 75 cm^2 flask with a cell scraper and added to the 50 mL tube. […] SH30071.03) […] Technologies, cat #: 15410-122)). Cell number was determined using a hemacytometer. […] Measurements and calculations were made as described above for the CHO-K1 cells.

Data set [4] deals with CHO-K1 cells. Nature of the data set: CHO-K1 cell proliferation assay. As to conditions: unformulated alkyl esters, 48 hour incubation; for Effect on cell proliferation: concentration with detectable inhibition: 0.195 μM-25 μM. As to the method: CHG-K1 cells were harvested when the cell monolayer was 50-90% confluent (use passage 4-11). Media was aspirated out of the flask, and cells were rinsed with 2 mL of F12 media. Next, 1 mL of pre-warmed (37° C.) 0.25%o trypsin-EDTA (Life Technologies, Cat#: 25300054) was added, and cells were dislodged from the flask by tapping it on the side. Complete growth media (F12 (Life Technologies, Cat #: 31765092) +10%FBS (Hyclone, Cat #: SH30071.03)+1× Pen-Strep (Life Technologies, cat #15140-122) was then added at a volume of 10 mL. Cells were eentrifuged at 250×g for 5 minutes at room temperature, and the media was aspirated. The cell pellet was resuspended in 10 ml. complete growth media. Cell number was determined using a hemacytometer. Ceils were then seeded at 2000 cells per well of a 96-well plate in 100 μL of complete growth media. The plate was incubated overnight at 37° C. and 5% CO2 in a water-jacketed incubator.
The next day, 80 μL of fresh complete media was added to each well, and CHO—K1 cells were challenged with treprostinil compound and composition treatments. The working solutions were prepared at 10× concentration, and following 2 fold serial dilutions, 20 μL aliquots were added per well to arrive at a final 1× concentration. Following a 48 hour incubation at 37° C. and 5% CO2 in a water-jacketed incubator, the inhibitory effect on cell proliferation was determined. Plates were analyzed using 20 μL of Presto Blue reagent (Life Technologies, cat #: A13262) per well. The reagent was mixed, and plates were incubated for 1 hour at 37° C. and 5% CO2 in a water-jacketed incubator. Plates were read using either a CytoFluor Series 4000 (PerSeptive BioSystems) or Synergy Neo microplate reader (BioTek) with emission λ: 590 nm and excitation λ: 560 nm.
Following a 48 hour incubation period, the inhibitory effect of the treprostinil derivative compositions on cell proliferation was determined.
CHO—K1 cells were challenged with treprostinil alkyl esters, i.e., TR compounds of Formula (A), having the following R2 groups: • C2, C3, C4, C5, C6, C8, C10 or C12 straight chain alkyl, at dosages ranging from 0.098 μM to 25 μM, Following a 48 hour incubation period, the inhibitory effect on cell proliferation was determined.
Following a 72 hour incubation period, the inhibitory effect on cell proliferation was determined. Following a 48 hour incubation period, the inhibitory effect on cell proliferation was determined.
Similarly, CHG-K1 cells were challenged with the treprostinil compositions T612 (R2═C2), T613 (R2═C8) at concentrations ranging from 1.41 μM to 180 μM.

A short description of data set [5]: Particle size characterization of treprostinil compositions (QELS). The settings on record: particles of compositions comprising the alkyl ester (FIG. 2). The format is physicochemical.
Experimental: All particle size measurements were performed using a Wyatt Technology Mobius™ Zeta Potential/ Particle Sizing Instrument in Quasi-elastic light scattering (QELS) mode. Composition aiiquots were diluted 10-fold in pre-filtered (0.02 μm pore filter) ultrapure of deionized H2O. Light scattering data was collected and converted into particle size and size distribution using Dynamics® v. […] Reported average particle size diameter is based on the cumulants model, which mathematically fits particle diffusion constants (determined by the raw scattering intensities of particles in a suspension) to obtain the particle size mean and a distribution of particle sizes around the mean diameter.
Particle uniformity was determined using the software-calculated polydispersity (% PD). Polydispersity is defined as the standard deviation of the particle size distribution from the mean particle size value. % PD normalizes the polydispersity to the mean diameter by dividing by the mean size and multiplylng by 100. These parameters indicate whether a particle suspension has one or more size populations of particles (monomodal versus multimodal). […]
Dynamics® polydispersity parameter represents a monodisperse population of particles if % PD≦15. A calculated % PD≧57% represents a polydisperse population of particles.

In the case of `CCCCC[C@H](O)CC[C@@H]1[C@H]2Cc3cccc(OCC(=O)OC(CCC)CCC)c3C[C@H]2C[C@H]1O` [4C7-TR], in data set [1], the “esterase mediated conversion rate compared with other compounds” value is on record as “slower conversion rate than the linear compound C8-TR”.

Turning to `CCCCCC(O)CCC1C(O)CC2Cc3c(cccc3OCC(=O)OC(CCC)CCCC)CC21` (stereo not shown) [4C8-TR], in data set [1], the “esterase mediated conversion rate compared with other compounds” value is on record as “slower conversion rate than the linear compound C8-TR; also recorded: slower conversion rate than the symmetrical compounds”.

As for `CCCCC[C@H](O)CC[C@@H]1[C@H]2Cc3cccc(OCC(=O)OC(CCCC)CCCC)c3C[C@H]2C[C@H]1O` [5C9-TR, 5-nonanyl treprostinil], the “change of potency with incubation time / release profile” value in data set [2] (dose response curves at 0.5 to 8 hr incubation) is recorded as “increases with incubation time; also recorded: delayed release profile”. Moreover, the “ranking of activity of the treprostinil compounds” value in data set [2] (unformulated compounds, 10 μM and 5 μM, FIG. 21) is recorded as “C12-TR>C14-TR>5-nonanyl-TR>C16-TR”. Besides, the results for the “esterase mediated conversion rate compared with other compounds” value in data set [1] and in data set [1] (listed as 5-nonanyl-TR) were “slower conversion rate than the linear compound C8-TR” and “slower conversion rate than linear C8-TR”, respectively.

Consider `CCCCCC[C@@H](C)OC(=O)COc1cccc2c1C[C@H]1C[C@@H](O)[C@H](CC[C@@H](O)CCCCC)[C@H]1C2` [(R)-2C8-TR], for which the “esterase mediated conversion rate compared with other compounds” value in data set [1] was “no significant difference between the conversion rates of R and S isomers”.

Take `CCCCCC[C@H](C)OC(=O)COc1cccc2c1C[C@H]1C[C@@H](O)[C@H](CC[C@@H](O)CCCCC)[C@H]1C2` [(S)-2C8-TR]: the “esterase mediated conversion rate compared with other compounds” value in data set [1] was “no significant difference between the conversion rates of R and S isomers”.

For the compound `CCCCC[C@H](O)CC[C@@H]1[C@H]2Cc3cccc(OCC(=O)OCC)c3C[C@H]2C[C@H]1O` [C2-TR, treprostinil ethyl ester], in data set [3], the “Effect on cell proliferation” value is given as “No detectable cell inhibition”. In addition, the “Effect on cell proliferation: concentration with detectable inhibition” value (“Effect … with detectable inhibition” for short) in data set [4] was “No detectable cell inhibition”.

In the case of `CCCCC[C@H](O)CC[C@@H]1[C@H]2Cc3cccc(OCC(=O)OCCC)c3C[C@H]2C[C@H]1O` [C3-TR], the “Effect on cell proliferation” value in data set [3] is reported as “No detectable cell inhibition”. The “Effect … with detectable inhibition” value in data set [4] is given as “No detectable cell inhibition”.

For the compound `CCCCC[C@H](O)CC[C@@H]1[C@H]2Cc3cccc(OCC(=O)OCCCC)c3C[C@H]2C[C@H]1O` [C4-TR], in data set [3], the “Effect on cell proliferation” value is given as “No detectable cell inhibition”. Further, in data set [4], the “Effect … with detectable inhibition” value is “No detectable cell inhibition”.

On to `CCCCCCOC(=O)COc1cccc2c1C[C@H]1C[C@@H](O)[C@H](CC[C@@H](O)CCCCC)[C@H]1C2` [C6-TR], for which the “Effect on cell proliferation” value in data set [3] is listed as “No detectable cell inhibition”. Besides, the “Effect … with detectable inhibition” value in data set [4] is “No detectable cell inhibition”.

In the case of `CCCCCCCCOC(=O)COc1cccc2c1C[C@H]1C[C@@H](O)[C@H](CC[C@@H](O)CCCCC)[C@H]1C2` [C8-TR, treprostinil octyl ester], the “inhibition of cell proliferation at the highest concentration” value in data set [3] is reported as “showed some inhibition of cell proliferation”. In data set [4], the “Effect … with detectable inhibition” value turned out to be 25 µM and the “inhibition of cell proliferation at the highest concentration” value was “showed inhibition of cell proliferation”.

As to treprostinil decyl ester [C10-TR], in data set [5], the “polydispersity (% PD)” value is listed as “around 15 % PD”. The “duration of cAMP levels” value in data set [2] (5 μM, FIG. 4 and FIG. 5) is given as “sustained significantly longer than free treprostinil”. In data set [2] (10 μM, FIG. 3A), the “cAMP levels compared with free treprostinil” value was “equivalent to free treprostinil” and the “time for which cAMP level was sustained” value is listed as “at least 6 hours”. In addition, the “cAMP response compared with free treprostinil” value in data set [2] (compositions, 5 μM, FIG. 4) is on record as “greater than or equivalent to the response induced by free treprostinil”. Further, in data set [2] (unformulated alkyl esters, 5 μM, FIG. 5), the “cAMP response levels of unformulated compounds” value is recorded as “equivalent to free treprostinil”.
